In patent publication US10295537B2, “Biorecognition elements for rapid detection of biocontamination” (The United States of America, as represented by the …, priority 2017, dated 2019):

Assays:
[1] = molecular target: biotinylated bovine serum albumin (BSA) (Bos taurus, UniProt P02769); test: Biopanning against biotinylated BSA to identify target-unrelated peptides; type: binding; details: phage displaying the peptide, round 3
Text: The phage library was then screened to identify target-unrelated peptides by using biotinylated bovine serum albumin (“BSA”) as a target for biopanning.

P. stutzeri cells = test: Fluorometry of P. stutzeri cells labeled with peptide-QD525 conjugates; type: cell-based; details: emission peak at 525 nm, 1×10^9 P. stutzeri cells
Protocol: The emission peak fluorescence at 525 nm of 1×10^9 P. stutzeri cells labeled with peptide-QD525 conjugates was measured in a fluorometer and relative fluorescence units (“RFIU”) were compared (Table 6 and 7, above). Peptides OBP11 and OBP12 targeting OprF, and peptide OPP1 targeting Opr86 presented fluorescence levels that greatly surpassed the other selected peptides for the respective target. OPP1, OBP11, and OBP12 were selected for further characterization and validation.
(§1) Bacterial stocks for experimentation were prepared by harvesting overnight grown bacterial cells by centrifugation at 11000×g for 15 min (at 4° C.), washed once with 1×PBS, pH 7.2, and re-suspended in 1×PBS to a concentration of 1×10^9 cells/mL. Bacterial titers were determined by measuring optical density at 600 nm and confirmed by colony counting on LB agar plates. Cell pellets produced by centrifuging 1 mL of the 1×10^9 cells/mL stock were re-suspended in 38 μL of 1×PBS and 62 μL of 2.4 μM peptide-QD was added to a final concentration of 1.5 μM. Cells were incubated for 30 min at 25° C. Cell pellets were washed three-times with 0.5 mL PBS and re-suspended in 500 μL PBS for fluorescence assays and imaging. Dilutions ranging from 1×10^9 cells to 1×10^4 cells were prepared using standard bacteriological techniques and 0.5 mL samples were used for fluorescence measurements.
(§2) Emission spectra were obtained using Cary Eclipse Fluorimeter with excitation at 330 nm, scan rate of 120 nm/imin, and PMT voltage of 1000V. Spectra were corrected for background and dilution factor when appropriate.

[2] = test system: Gram negative (P. stutzeri, P. alkaligenes, P. aeruginosa, A. venetianus) and Gram positive (Arthrobacter sp., Lynsinibacillus sp.) bacteria; test: Fluorescence microscopy of fuel degrading bacteria labeled with peptide BRE-QD545; type: cell-based; details: 1×10^9 cells, QD545, 1.5 μM
Protocol: (§3) To characterize the specificity of the peptide BRE-QD545 conjugates for the intended bacterial groups, fluorescence imaging and fluorometric analysis were performed using different Gram negative and Gram positive fuel degrading bacteria. As such, cultures comprising 1×10^9 cells of Gram negative bacteria (P. stutzeri, P. alkaligenes, P. aeruginosa and A. venetianus) and Gram positive bacteria (Arthrobacter sp. and Lynsinibacillus sp.) were labeled with OPP1, OBP11 and OBP12 biofunctionalized QD545 and visualized using fluorescence microscopy (FIGS. 5-10) and the fluorescence quantified using a fluorometer (FIG. 11).
as §1
10 μL of the prepared sample was placed on a microscope slide, covered with a coverslip, and visualized on an Nikon Eclipse Ti-E inverted microscope equipped with X-Cite LED lamp, a fluorescence filter set (a bandpass exciter 405 nm and a longpass emission filter), a 1.25-numerical-aperture oil-immersion objective (DPlan 100×, Nikon). Images were captured by Nikon DS-sCMOS camera.

Opr86 = test: Solution biopanning against biotinylated Opr86 extracellular loop fragment, three rounds of selection; type: binding, P. aeruginosa; details: Bushnell-Haas pH 8.5 with 1% Jet-A
Protocol: Generally, solution-phase biopanning was carried out as described by the manufacturer (New England Biolabs, Ipswich, Mass.) with some modifications, including the changing of pH from 7.0 to 5.5 and 8.5 and adding 1% v/v of Jet A fuel. The first round of selection was carried out by diluting Ph.D.-7 bacteriophage library 100-fold in 0.1% Tris buffer saline plus Tween 20 (0.1% TBST) at the appropriate pH for selection plus fuel. Subsequently, the phage library was incubated with 1 μg of N-terminal biotinylated target protein fragment (OprF1: […] (SEQ. ID No. 1), OprF2: ADIKNLADFMK QYPSTSTT (SEQ. ID No. 2), Opr86: […] STP (SEQ. ID No. 3)) for 1 hr at 25° C. Phage-protein complexes were captured with 50 μL of streptavidin magnetic microbeads, unbound phages were removed, and the pellet sample washed 10-times with 1 mL of 1× Tris buffer saline (“TBS”) plus 0.05% TBST to remove weakly bound phage particles. Bound bacteriophages were eluted from the beads by lowering the pH (0.2 M Glycine-HCl, pH 2.2) while rotating gently for 10 min at 25° C. After neutralization with 1 M Tris-HCl, pH 9.1, eluted phages were amplified by infection of E. coli strain ER 2738 grown in Luria-Bertani (“LB”) broth medium until early-log phase (OD600 0.1-0.5). Titer of the amplified phage (more than 10^10 pfu/mL) was determined by infection into E. coli ER2738 and subsequent growth in selective medium containing X gal/IPTG. Amplified phages from round 1 were pre-cleared with streptavidin-coated magnetic microbeads (50 μL) to further remove non-specific binders and then used as the input phage for round 2 of selection. Enrichment of the bacteriophage pool was achieved by performing […] of selection under the appropriate pH plus jet fuel condition. Genomic DNA from individual clones was sequenced by GenScript (Piscataway, N.J.).
The particular region of the Opr86 extracellular loop of sequence […] (SEQ. ID No. 3) was chemically synthesized with a biotin capture element and used as target epitope for BRE development in solution biopanning in Bushnell-Haas, pH 8.5, supplemented with 1% Jet-A. Following the previously established procedure for OprF, several unique Opr86 peptide BREs (“OPPs”) were identified after three rounds of selection (Table 7, above).

[3] = test system: Gram negative bacteria (A. venetianus and Pseudomonas spp.); test: Fluorometry of fuel degrading bacteria labeled with peptide-QD545 conjugates (FIG. 11); type: cell-based; details: for detection of Gram negative bacteria by fluorometer: 1×10^9 cells, QD545 conjugates, FIG. 11
Protocol: as §3, §1, §2

OprF1 = molecular target: T1, OprF1 (Pseudomonas aeruginosa, UniProt P13794); test: Solution-phase biopanning of Ph.D.-7 phage library against OprF1 with amplification, physiological conditions, clone abundance; type: binding, P. aeruginosa; details: four rounds with amplification, physiological conditions (pH 7)
T1 sequence (P13794 whole entry, looked up): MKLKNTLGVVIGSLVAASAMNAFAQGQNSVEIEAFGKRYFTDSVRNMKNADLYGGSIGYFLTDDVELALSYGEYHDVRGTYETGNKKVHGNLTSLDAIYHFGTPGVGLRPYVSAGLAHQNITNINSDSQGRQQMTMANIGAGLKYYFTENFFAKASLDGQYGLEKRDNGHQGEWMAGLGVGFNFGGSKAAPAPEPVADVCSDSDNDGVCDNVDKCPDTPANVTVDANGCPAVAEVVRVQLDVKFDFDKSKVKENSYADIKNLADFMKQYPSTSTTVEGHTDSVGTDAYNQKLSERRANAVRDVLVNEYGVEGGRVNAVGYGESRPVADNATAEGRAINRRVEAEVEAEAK
Text: Biotinylated at its N-terminal, an OprF1 synthetic peptide was used for solution biopanning screening of a commercially-available M13 bacteriophage library displaying heptameric peptides at the N-terminal of P3 coat protein. Solution-phase biopanning provided the benefit of including the availability of all the OprF1 aa residues for interaction with the potential peptide binder with lessened likelihood of isolating unspecific peptides that might bind to the capture element used to purify the phage-antigen complex (i.e., magnetic or protein G beads).
Generally, solution-phase biopanning was carried out as described by the manufacturer (New England Biolabs, Ipswich, Mass.) with some modifications, including the changing of pH from 7.0 to 5.5 and 8.5 and adding 1% v/v of Jet A fuel. The first round of selection was carried out by diluting Ph.D.-7 bacteriophage library 100-fold in 0.1% Tris buffer saline plus Tween 20 (0.1% TBST) at the appropriate pH for selection plus fuel. Subsequently, the phage library was incubated with 1 μg of N-terminal biotinylated target protein fragment (OprF1: […] (SEQ. ID No. 1), OprF2: ADIKNLADFMK QYPSTSTT (SEQ. ID No. 2), Opr86: […] STP (SEQ. ID No. 3)) for 1 hr at 25° C. […] Titer of the amplified phage (more than 10^10 pfu/mL) was determined by infection into E. coli ER2738 and subsequent growth in selective medium containing X gal/IPTG. […]

biotinylated OprF1 = molecular target: T2, biotinylated OprF1 (Pseudomonas aeruginosa, UniProt P13794); test: Unamplified competitive solution biopanning of 14 monoclonal phages against biotinylated OprF1; percent abundance among 30 clones as relative affinity; type: binding, P. aeruginosa; details: Bushnell-Haas pH 8.5 with 1% v/v Jet-A, 30 randomly selected clones
T2 construct: Biotinylated at its N-terminal, an OprF1 synthetic peptide was used for solution biopanning screening
T2 sequence (P13794 whole entry, looked up): T1 sequence (P13794 whole entry, looked up)

Sequence of biotinylated bovine serum albumin (BSA) (P02769 25-607): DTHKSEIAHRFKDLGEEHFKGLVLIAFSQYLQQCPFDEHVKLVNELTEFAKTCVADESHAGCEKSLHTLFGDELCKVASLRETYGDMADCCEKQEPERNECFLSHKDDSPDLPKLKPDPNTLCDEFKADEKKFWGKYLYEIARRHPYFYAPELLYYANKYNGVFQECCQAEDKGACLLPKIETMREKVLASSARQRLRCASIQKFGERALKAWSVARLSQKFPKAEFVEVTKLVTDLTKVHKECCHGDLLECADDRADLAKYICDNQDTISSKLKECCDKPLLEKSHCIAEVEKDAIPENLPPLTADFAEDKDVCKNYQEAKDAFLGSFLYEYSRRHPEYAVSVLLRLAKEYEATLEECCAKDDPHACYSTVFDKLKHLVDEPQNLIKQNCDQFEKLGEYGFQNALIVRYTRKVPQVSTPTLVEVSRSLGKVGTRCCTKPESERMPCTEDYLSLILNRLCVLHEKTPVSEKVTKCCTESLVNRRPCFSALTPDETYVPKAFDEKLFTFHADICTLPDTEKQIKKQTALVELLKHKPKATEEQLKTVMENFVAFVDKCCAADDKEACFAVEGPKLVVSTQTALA

Substance | cross-reaction with BSA [1] | Fluorescence (RFU) (P. stutzeri cells) | labeling of bacteria in fluorescence micrographs [2] | % Abundance (Opr86) [%] | detection of Gram negative bacteria by fluorometer [3] | LOD of P. stutzeri compared among all the BREs ([3]; P. stutzeri) | abundance based on round 4 clones (OprF1) [%] | % Abundance (biotinylated OprF1) [%]
IQTNPTM (Artificial sequence obtained through biopanning.) | cross-react with BSA | – | – | – | – | – | – | –
P R I R K S H (PRIRKSH; Artificial sequence obtained through biopanning.) [OPP1, Opr86 peptide BRE] | – | 12258 ± 2060 | specifically labeled Gram negative bacteria but not the Gram positive bacteria | 3 | – | – | – | –
PIKTNRK (Artificial sequence obtained through biopanning.) [OBP11] | – | 5308 ± 501 | specifically labeled Gram negative bacteria but not the Gram positive bacteria | – | able to detect all Gram negative bacteria tested | – | – | –
PKRTPRH (Artificial sequence obtained through biopanning.) [OBP12] | – | 6443 ± 957 | specifically labeled Gram negative bacteria but not the Gram positive bacteria | – | able to detect all Gram negative bacteria tested | highest LOD | – | –
PPKINIM (Artificial sequence obtained through biopanning.) [target-unrelated, cross-reacts with BSA] | cross-react with BSA | – | – | – | – | – | 80 | 3
